Data reported in publication PMC11220827 (Frontiers in Pharmacology, 2024).

Target: T1, TRβ (Homo sapiens, UniProt P10828)
T1 sequence (P10828 1-461): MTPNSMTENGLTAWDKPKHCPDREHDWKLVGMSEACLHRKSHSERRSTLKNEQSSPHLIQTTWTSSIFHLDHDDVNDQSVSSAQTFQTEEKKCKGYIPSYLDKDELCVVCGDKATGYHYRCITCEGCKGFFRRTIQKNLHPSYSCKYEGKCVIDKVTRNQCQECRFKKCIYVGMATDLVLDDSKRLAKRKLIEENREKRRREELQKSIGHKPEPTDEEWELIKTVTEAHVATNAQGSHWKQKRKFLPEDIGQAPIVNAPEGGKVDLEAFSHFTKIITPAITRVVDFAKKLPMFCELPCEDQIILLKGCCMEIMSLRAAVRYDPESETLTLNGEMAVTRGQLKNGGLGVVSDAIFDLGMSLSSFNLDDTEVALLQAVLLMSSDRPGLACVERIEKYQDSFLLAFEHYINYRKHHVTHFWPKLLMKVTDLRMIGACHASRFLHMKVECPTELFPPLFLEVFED
Conditions: reference
Procedure: using the U2-OS based CALUX cytotox bioassay. The cytotoxicity of each test chemical was assessed using the U2-OS based cytotoxicity CALUX bioassay. Concentrations causing >20% reduction of luminescence were considered cytotoxic.
cytotoxicity (relative induction in the cytotoxicity CALUX bioassay > 80%) were used for final
evaluation of analysis results.
induction in the cytotox CALUX bioassay > 80%) were used for final evaluation of analysis results.
All analysis results were expressed in molar (M) final in well.
For determination of the (anti-)ERα, (anti-)AR and (anti-)TRβ CALUX activities, CALUX cells were
seeded in assay medium. Following exposure of the CALUX cells to serial dilutions of the
compounds in triplicate for 24 h, the induction of luciferase production was quantified by measuring
luminescence following addition of the substrate luciferin. For antagonist assays, a fixed
concentration of assay agonist was present in each well, to generate a basal signal. On each plate, a
complete calibration curve for each respective bioassay was also analysed using the relevant reference
compounds. For the analyses in the presence of rat liver S9, 0.03% (v/v) of PB/BNF induced rat liver
S9 mix (including NADPH and an NADPH-regenerating system) was added to the cells directly after
addition of the compounds, which remained there for the duration of the exposure period (24 h) (van
Relative light units (RLUs) of the CALUX assays were analysed as follows. For agonist assays,
background values (exposure to DMSO only) were subtracted, and the maximum activity of the
assay’s reference compound was set to 100%. For antagonist assays, the basal signal (exposure to fixed concentration of agonist only) was set to 100%. Activity of the samples was scaled accordingly,
resulting in expression of the data as “percentage of maximum reference response”. Graphs were
generated using the statistical software package GraphPad Prism V5.03. Using these graphs, lowest
effect concentrations (LOECs) and PC50 concentrations were determined; LOEC is defined as the […]

## CC1=C[C@H]2O[C@@H]3[C@H](O)C[C@](C)([C@@]2(CO)[C@H](O)C1=O)[C@]31CO1 [Deoxynivalenol, reference compound]
  Anti-TRß antithyroid LOEC, reference compound: −6.9 Log M
